In PubChem BioAssay (NCI):
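GI50 = concentration required for 50% inhibition of growth. TGI marks complete inhibition of growth.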

Columns and labels:
Test in all cases: growth of human tumour cells (NCI), 384-well format; in the data active = GI50 below about 0.43 µM; inactive = the rest
SK-MEL-5 melanoma = tested on: SK-MEL-5 melanoma
HCT-116 colon = tested on: HCT-116 colon
UACC-257 melanoma = tested on: UACC-257 melanoma
MDA-MB-231 breast = tested on: MDA-MB-231 breast
HCC-2998 colon = tested on: HCC-2998 colon
HCT-15 colon = tested on: HCT-15 colon
SK-MEL-2 melanoma = tested on: SK-MEL-2 melanoma
SF-295 CNS = tested on: SF-295 CNS
A498 renal = tested on: A498 renal
OVCAR-8 ovarian = tested on: OVCAR-8 ovarian
KM12 colon = tested on: KM12 colon
HOP-62 NSCLC = tested on: HOP-62 NSCLC
HOP-92 NSCLC = tested on: HOP-92 NSCLC
HL-60(TB) leukemia = tested on: HL-60(TB) leukemia
DU-145 prostate = tested on: DU-145 prostate
SN12C renal = tested on: SN12C renal
K-562 leukemia = tested on: K-562 leukemia
MOLT-4 leukemia = tested on: MOLT-4 leukemia
SK-OV-3 ovarian = tested on: SK-OV-3 ovarian
786-0 renal = tested on: 786-0 renal
BT-549 breast = tested on: BT-549 breast
SF-268 CNS = tested on: SF-268 CNS
HT29 colon = tested on: HT29 colon
ACHN renal = tested on: ACHN renal
MDA-MB-468 breast = tested on: MDA-MB-468 breast
COLO 205 colon = tested on: COLO 205 colon
CAKI-1 renal = tested on: CAKI-1 renal
UACC-62 melanoma = tested on: UACC-62 melanoma
U251 glioblastoma = tested on: U251 glioblastoma
UO-31 renal = tested on: UO-31 renal
SNB-19 CNS = tested on: SNB-19 CNS
MCF7 breast = tested on: MCF7 breast
T-47D breast = tested on: T-47D breast
MDA-MB-435 melanoma = tested on: MDA-MB-435 melanoma
NCI-H23 lung = tested on: NCI-H23 lung
M14 melanoma = tested on: M14 melanoma
LOX IMVI melanoma = tested on: LOX IMVI melanoma
SK-MEL-28 melanoma = tested on: SK-MEL-28 melanoma
SR leukemia = tested on: SR leukemia
NCI-H460 NSCLC = tested on: NCI-H460 NSCLC
IGROV1 ovarian = tested on: IGROV1 ovarian
OVCAR-3 ovarian = tested on: OVCAR-3 ovarian
MALME-3M melanoma = tested on: MALME-3M melanoma
SW-620 colon = tested on: SW-620 colon
OVCAR-4 ovarian = tested on: OVCAR-4 ovarian
NCI-H322M lung = tested on: NCI-H322M lung
NCI-H522 lung = tested on: NCI-H522 lung
A549 NSCLC = tested on: A549 NSCLC
NCI/ADR-RES ovarian = tested on: NCI/ADR-RES ovarian
CCRF-CEM leukemia = tested on: CCRF-CEM leukemia
RXF 393 renal = tested on: RXF 393 renal
TK-10 renal = tested on: TK-10 renal
PC-3 prostate = tested on: PC-3 prostate
SF-539 CNS = tested on: SF-539 CNS
NCI-H226 lung = tested on: NCI-H226 lung
OVCAR-5 ovarian = tested on: OVCAR-5 ovarian

CN(c1ccc(C#N)c(Cl)c1)C1CCC(NC(=O)c2ccc(N3CCN(C4CN(c5ccc6c(c5)C(=O)N(C5CCC(=O)NC5=O)C6=O)C4)CC3)cc2)CC1 (configuration not stated)
> 100 µM: TGI (SK-MEL-5 melanoma) | TGI (HCT-116 colon) | TGI (UACC-257 melanoma) | TGI (MDA-MB-231 breast) | TGI (HCC-2998 colon) | TGI (HCT-15 colon) | TGI (SK-MEL-2 melanoma) | TGI (SF-295 CNS) | TGI (A498 renal) | TGI (OVCAR-8 ovarian) | TGI (KM12 colon) | TGI (HOP-62 NSCLC) | TGI (HOP-92 NSCLC) | TGI (HL-60(TB) leukemia) | TGI (DU-145 prostate) | TGI (SN12C renal) | TGI (K-562 leukemia) | TGI (MOLT-4 leukemia) | TGI (SK-OV-3 ovarian) | TGI (786-0 renal) | TGI (BT-549 breast) | TGI (SF-268 CNS) | TGI (HT29 colon) | TGI (ACHN renal) | TGI (MDA-MB-468 breast) | TGI (COLO 205 colon) | TGI (CAKI-1 renal) | TGI (UACC-62 melanoma) | TGI (U251 glioblastoma) | TGI (UO-31 renal) | TGI (SNB-19 CNS) | TGI (MCF7 breast) | TGI (T-47D breast) | TGI (MDA-MB-435 melanoma) | TGI (NCI-H23 lung) | TGI (M14 melanoma) | TGI (LOX IMVI melanoma) | TGI (SK-MEL-28 melanoma) | TGI (SR leukemia) | TGI (NCI-H460 NSCLC) | TGI (IGROV1 ovarian) | TGI (OVCAR-3 ovarian) | TGI (MALME-3M melanoma) | TGI (SW-620 colon) | TGI (OVCAR-4 ovarian) | TGI (NCI-H322M lung) | TGI (NCI-H522 lung) | TGI (A549 NSCLC) | TGI (NCI/ADR-RES ovarian) | TGI (CCRF-CEM leukemia) | TGI (RXF 393 renal) | TGI (TK-10 renal) | TGI (PC-3 prostate) | TGI (SF-539 CNS) | TGI (NCI-H226 lung) | TGI (OVCAR-5 ovarian)
inactive: GI50 (SK-MEL-5 melanoma) > 100 µM | GI50 (HCT-116 colon) > 100 µM | GI50 (UACC-257 melanoma) > 100 µM | GI50 (MDA-MB-231 breast) > 100 µM | GI50 (HCC-2998 colon) > 100 µM | GI50 (HCT-15 colon) > 100 µM | GI50 (SK-MEL-2 melanoma) > 100 µM | GI50 (SF-295 CNS) > 100 µM | GI50 (A498 renal) > 100 µM | GI50 (OVCAR-8 ovarian) > 100 µM | GI50 (KM12 colon) > 100 µM | GI50 (HOP-62 NSCLC) > 100 µM | GI50 (HOP-92 NSCLC) > 100 µM | GI50 (HL-60(TB) leukemia) > 100 µM | GI50 (DU-145 prostate) > 100 µM | GI50 (SN12C renal) > 100 µM | GI50 (K-562 leukemia) > 100 µM | GI50 (MOLT-4 leukemia) > 100 µM | GI50 (SK-OV-3 ovarian) > 100 µM | GI50 ([…]-0 renal) > 100 µM | GI50 (BT-549 breast) > 100 µM | GI50 (SF-268 CNS) > 100 µM | GI50 (HT29 colon) > 100 µM | GI50 (ACHN renal) > 100 µM | GI50 (MDA-MB-468 breast) > 100 µM | GI50 (COLO 205 colon) > 100 µM | GI50 (CAKI-1 renal) > 100 µM | GI50 (UACC-62 melanoma) > 100 µM | GI50 (U251 glioblastoma) > 100 µM | GI50 (UO-31 renal) > 100 µM | GI50 (SNB-19 CNS) > 100 µM | GI50 (MCF7 breast) > 100 µM | GI50 (T-47D breast) > 100 µM | GI50 (MDA-MB-435 melanoma) > 100 µM | GI50 (NCI-H23 lung) > 100 µM | GI50 (M14 melanoma) > 100 µM | GI50 (LOX IMVI melanoma) > 100 µM | GI50 (SK-MEL-28 melanoma) > 100 µM | GI50 (SR leukemia) > 100 µM | GI50 (NCI-H460 NSCLC) > 100 µM | GI50 (IGROV1 ovarian) > 100 µM | GI50 (OVCAR-3 ovarian) > 100 µM | GI50 (MALME-3M melanoma) > 100 µM | GI50 (SW-620 colon) > 100 µM | GI50 (OVCAR-4 ovarian) > 100 µM | GI50 (NCI-H322M lung) > 100 µM | GI50 (NCI-H522 lung) > 100 µM | GI50 (A549 NSCLC) > 100 µM | GI50 (NCI/ADR-RES ovarian) > 100 µM | GI50 (CCRF-CEM leukemia) > 100 µM | GI50 (RXF 393 renal) > 100 µM | GI50 (TK-10 renal) > 100 µM | GI50 (PC-3 prostate) > 100 µM | GI50 (SF-539 CNS) > 100 µM | GI50 (NCI-H226 lung) > 100 µM | GI50 (OVCAR-5 ovarian) > 100 µM
